Results on 3 compounds are retold here after patent publication US20250041214A1, “INHALABLE OR INGESTIBLE LACTIC ACID COMPOSITIONS FOR THE TREATMENT OF CHRONIC LUNG DISEASE” (Alveolus Bio, Inc., priority 2021, published 2025).

For series [1] the following is noted: pure water; cited from earlier work.
Series [2] concerns Matrix Metalloproteinase-9 (MMP-9) mRNA. Nature of the series: MMP-9 mRNA in Caco-2 intestinal epithelial cells inoculated with E. coli, qRT-PCR. It counts as cell-based, human. The conditions noted are these: Caco-2 cells inoculated with E. coli; L(+) lactic acid 1.5 mM, 3 mM or 6 mM; 4 hours at 37° C. How it is done:
In FIG. 3, human intestinal epithelial cells (IECs) from the Caco-2 cell line were seeded on a 6 well plate with 4×10^5 cells in each well. 16 hours later, the medium was changed to fresh DULBECCO'S Modified Eagle Medium/Nutrient Mixture F-12 (DMEM/F12) without antibiotic, and E. coli was added to the cells at a final concentration of 5.0×10^7 E. coli cells/ml. L(+) Lactic acid was added together with E. coli at a final lactic acid concentration of 1.5 mM, 3 mM, or 6 mM. The cells were incubated at 37° C. for 4 hours and then harvested with QIAZOL reagent. RNA was extracted according to the QIAZOL protocol. The level of Matrix Metalloproteinase-9 (MMP-9) mRNA was measured by quantitative real-time PCR (qRT-PCR).

Series [3] relates to MMP-9 mRNA. Briefly: MMP-9 mRNA in A549 NSCLC adenocarcinoma cells inoculated with E. coli, real-time qPCR. It counts as cell-based. The conditions noted are these: 0.25 μg to 4 ug L-LA, 4 hours at 37° C. As for the experimental part:
In FIG. 4, 2×10^5 A549 cells were seeded in 500 μL growth medium per each well of a 24-well plate. Cells were treated with: (1) 2 uL PBS (control), (2) 5×10^8 E. coli cells (E. coli), (3) or 5×10*8 cells E. coli with 0.25 ug, 0.5 ug, 1 ug, 2 ug, or 4 ug L-lactic acid. The cells were incubated for 4 hours at 37° C. Cells were harvested, RNA was extracted with an RNA extraction kit, the concentration of total RNA was measured, cDNA was obtained using a High-Capacity cDNA Reverse Transcription Kit, and then a TAQMAN real-time qPCR protocol was performed on the cDNA.

Series [4] concerns Matrix Metalloproteinase-9 (MMP-9) mRNA. Briefly: MMP-9 mRNA in E. coli-treated HBE cells (dysbiosis model of lung epithelial cells), qRT-PCR. It counts as cell-based, human. The conditions noted are these: 4 hours at 37° C. How it is done: In FIG. 2, human primary epithelial (HBE) cells were seeded on a 6 well plate with 4×10^5 cells in each well. 16 hours later, the medium was changed to fresh DULBECCO'S Modified Eagle Medium/Nutrient Mixture F-12 (DMEM/F12) without antibiotic, and E. coli was added to the cells at a final concentration of 5.0×10^7 E. coli cells/ml. L(+) Lactic acid was added together with E. coli at a final lactic acid concentration of 5 mM, 10 mM, or 20 mM. The cells were incubated at 37° C. for 4 hours and then harvested with QIAZOL reagent. RNA was extracted according to the QIAZOL protocol. The level of Matrix Metalloproteinase-9 (MMP-9) mRNA was measured by quantitative real-time PCR (qRT-PCR). In FIG. 5, human bronchial epithelial (HBE) cells were seeded on a 6 well plate with 4×10^5 cells in each well. 16 hours later, the medium was changed to fresh DULBECCO'S Modified Eagle Medium/Nutrient Mixture F-12 (DMEM/F12) without antibiotic, and E. coli was added to the cells at a final concentration of 5.0×10^7 E. coli cells/ml. D(−) Lactic acid was added together with E. coli at a final lactic acid concentration of 0.25 ug/mL, 0.5 ug/mL, or 2 μg/mL. The cells were incubated at 37° C. for 4 hours and then harvested with QIAZOL reagent. RNA was extracted according to the QIAZOL protocol. The level of Matrix Metalloproteinase-9 (MMP-9) mRNA was measured by quantitative real-time PCR (qRT-PCR).

“Also recorded” adds a separate entry of the source.

Consider “Polyoxyethylene (20) sorbitan monooleate [polysorbate 80]”, for which, in series [1], the critical micelle concentration is given as 0.012 mM.
For `C[C@H](O)C(=O)O` [L-lactic acid], the “MMP-9 mRNA levels” value in series [2] is “decreased”; in series [3], “decreased”; in series [4] (HBE cells treated with E. coli, L(+) lactic acid 5 mM, 10 mM or 20 mM), “MMP-9 reduction; also recorded: decreased”.
As for `C[C@@H](O)C(=O)O` [D-lactic acid], the “MMP-9 mRNA levels” value in series [4] (HBE cells inoculated with E. coli, 0.25 μg to 2 ug D-LA) is “no statistical difference”.
